Source: US9422566B2, “Gene cluster for biosynthesis of griselimycin and methylgriselimycin” (SANOFI, priority 2011, dated 2016)

Assays:
Format in all cases: biochemical, Streptomyces DSM 22643
Settings in all cases: in vitro ATP-[32P]PPi exchange, amino acid 5 mM, 30° C., nine substrates tested
[1] = test system: A domain of module 2 (A2) of NRPS-1; experiment: ATP-PPi exchange assay, substrate specificity of A domain A2
Method: (§1) In order to gain insight into the specificity of the A domains of modules 2, 5 and 8, the domains were recombinantly produced and their specificity analysed via an ATP/PPi exchange assay in vitro.
(§2) In order to directly investigate A domain substrate specificity, we aimed to express A domains A2, A5 and A8 from the griselimycin pathway as N-terminally His6-tagged proteins from pET28b (+). […]
(§3) Substrate specificity of the 3 purified adenylation domains was evaluated using the established ATP-PPi exchange assay (Mootz and Marahiel. 1997, Thomas et al., 2002). […] As a control, each protein was incubated in the absence of added amino acid, to determine the radioactivity background reaction. […]
(§4) To determine substrate specificity, ATP-[^32P]PPi reactions (100 μl) containing Tris-HCl (pH 7.5, 75 mM), MgCl2 (10 mM), […] (5 mM), amino acid (5 mM), and protein (2 μg) were performed at 30° C. ^32P-tetrasodium pyrophosphate was obtained from Perkin Elmer (NEN #NEX019). […] The charcoal was pelleted by centrifugation prior to being washed twice with the washing solution 0.1 M Na4P2O7 and 0.35 M perchloric acid in H2O), resuspended in H2O (500 μl), and counted by liquid scintillation (Beckman LS6500).

[2] = test system: A domain of module 5 (A5) of NRPS-1; experiment: ATP-PPi exchange assay, substrate specificity of A domain A5
Method: as §1, §2, §3, §4

[3] = test system: A domain of module 8 (A8) of NRPS-2; experiment: ATP-PPi exchange assay, substrate specificity of A domain A8
Method: as §1, §2, §3, §4

C[C@H]1CN[C@H](C(=O)O)C1 [(2S,4R)-4-methylproline]
specificity of the domain A2 for the substrate [1]: highest | specificity of the domain A5 for the substrate [2]: highest | specificity of the domain A8 for the substrate [3]: highest

O=C(O)[C@@H]1CCCN1 [L-proline]
specificity of the domain A8 for the substrate [3]: high specificity
